Assay results: US20170051034A1 (Novo Nordisk A/S, priority 2010, published 2017)
Numbered stars: 1 amine (or outer) side, 2 acyl side, 3 side chain; on linkers, the order of the positions; unused ones are H or OH. Side chains are listed from the residue outwards. Peptide text beside a SMILES is read from it. * marks the point of attachment. Palmitoyl(16-(5-tetrazolyl)) = O=C(CCCCCCCCCCCCCCCc1nnn[nH]1)*; C20 diacid = O=C(O)CCCCCCCCCCCCCCCCCCC(=O)*; C18 diacid = O=C(O)CCCCCCCCCCCCCCCCC(=O)*; C16 diacid = O=C(O)CCCCCCCCCCCCCCC(=O)*; γGlu = O=C(O)[C@H](CCC(=O)[*:2])N[*:1]; AEEA = NCCOCCOCC(=O)O

What follows are molecules tested against glucagon receptor (Homo sapiens, UniProt P47871) (assay: cell-based).
Chain of glucagon receptor (P47871 26-477): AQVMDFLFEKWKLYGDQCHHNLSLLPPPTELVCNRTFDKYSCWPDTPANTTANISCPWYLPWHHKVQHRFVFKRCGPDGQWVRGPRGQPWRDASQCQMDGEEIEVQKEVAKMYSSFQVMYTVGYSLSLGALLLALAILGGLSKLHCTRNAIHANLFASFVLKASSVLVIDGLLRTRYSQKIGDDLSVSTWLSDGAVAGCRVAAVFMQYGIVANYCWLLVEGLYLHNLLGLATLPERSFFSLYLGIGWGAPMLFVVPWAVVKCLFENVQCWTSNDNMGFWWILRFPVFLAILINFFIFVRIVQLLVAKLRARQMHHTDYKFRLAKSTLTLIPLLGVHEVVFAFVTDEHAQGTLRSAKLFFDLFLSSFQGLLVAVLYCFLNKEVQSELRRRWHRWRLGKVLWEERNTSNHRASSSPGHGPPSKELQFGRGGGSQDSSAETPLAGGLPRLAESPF
Procedure: The cells (14000 per well) were incubated (37° C., 5% CO2) overnight in 384-well plates. Next day the cells were loaded with a calcium responsive dye that only distributed into the cytoplasm. Probenecid, an inhibitor of the organic anion transporter, was added to prevent the dye from leaving the cell. A PDE inhibitor was added to prevent formatted cAMP from being degraded. […] End point data were collected after 6 minutes. An increase in intracellular cAMP was proportional to an increased in calcium concentrations in the cytoplasm. […] EC50-values were calculated in Prism5.

Question: With CC(C)C[C@H](NC(=O)[C@H](Cc1ccc(O)cc1)NC(=O)[C@H](CCCCN)NC(=O)[C@H](CO)NC(=O)[C@H](Cc1ccc(O)cc1)NC(=O)[C@H](CC(=O)O)NC(=O)[C@H](CO)NC(=O)[C@@H](NC(=O)[C@H](Cc1ccccc1)NC(=O)[C@@H](NC(=O)CNC(=O)[C@H](CCC(N)=O)NC(=O)[C@H](CO)NC(=O)[C@@H](N)Cc1c[nH]cn1)[C@@H](C)O)[C@@H](C)O)C(=O)N[C@@H](CC(=O)O)C(=O)N[C@@H](CO)C(=O)N[C@@H](CCCCN)C(=O)N[C@@H](CCCNC(=N)N)C(=O)N[C@@H](C)C(=O)N[C@@H](CCC(N)=O)C(=O)N[C@@H](CCC(=O)O)C(=O)N[C@@H](Cc1ccccc1)C(=O)N[C@H](C(=O)N[C@@H](CCC(N)=O)C(=O)N[C@@H](Cc1c[nH]c2ccccc12)C(=O)N[C@@H](CC(C)C)C(=O)N[C@@H](CC(C)C)C(=O)N[C@@H](CCCCNC(=O)COCCOCCNC(=O)COCCOCCNC(=O)CC[C@H](NC(=O)CCCCCCCCCCCCCCCCC(=O)O)C(=O)O)C(=O)N[C@H](C(N)=O)[C@@H](C)O)C(C)C [Example 43, N^ε28 ([2-[2-[2-[[2-[2-[2-[[(4S)-5-hydroxy-4-[(18-hydroxy-18-oxooctadecanoyl)amino]-5-oxopentanoyl]amino]ethoxy]ethoxy]acetyl]amino]ethoxy]ethoxy]acetyl]) [Lys^17, Glu^21 Leu^27, Lys^28] Glucagon peptide amide] (H-HSQGTFTSDYSKYLDSKRAQEFVQWLLK([AEEA-AEEA-γGlu-C18 diacid])T-NH2; N-terminus assumed) as the molecule, how does the EC50 read?
Answer: 0.003 nM

Question: With CC(C)C[C@H](NC(=O)[C@H](Cc1ccc(O)cc1)NC(=O)[C@H](CCCCN)NC(=O)[C@H](CO)NC(=O)[C@H](Cc1ccc(O)cc1)NC(=O)[C@H](CC(=O)O)NC(=O)[C@H](CO)NC(=O)[C@@H](NC(=O)[C@H](Cc1ccccc1)NC(=O)[C@@H](NC(=O)CNC(=O)[C@H](CCC(N)=O)NC(=O)[C@H](CO)NC(=O)[C@@H](N)Cc1c[nH]cn1)[C@@H](C)O)[C@@H](C)O)C(=O)N[C@@H](CC(=O)O)C(=O)N[C@@H](CO)C(=O)N[C@@H](CCCCN)C(=O)N[C@@H](CCCCN)C(=O)N[C@@H](C)C(=O)N[C@@H](CCC(N)=O)C(=O)N[C@@H](CCC(=O)O)C(=O)N[C@@H](Cc1ccccc1)C(=O)N[C@H](C(=O)N[C@@H](CCCCNC(=O)COCCOCCNC(=O)COCCOCCNC(=O)CC[C@H](NC(=O)CCCCCCCCCCCCCCCCCCC(=O)O)C(=O)O)C(=O)N[C@@H](Cc1c[nH]c2ccccc12)C(=O)N[C@@H](CC(C)C)C(=O)N[C@@H](CC(C)C)C(=O)N[C@@H](CC(N)=O)C(=O)N[C@H](C(=O)O)[C@@H](C)O)C(C)C [Example 66, N^ε24-[2-[2-[2-[[2-[2-[2-[[(4S)-4-carboxy-4-(19-carboxynonadecanoylamino)butanoyl]amino]ethoxy]ethoxy]acetyl]amino]ethoxy]ethoxy]acetyl]-[Lys^17,Lys^18,Glu^21,Lys^24,Leu^27]-Glucagon] (H-HSQGTFTSDYSKYLDSKKAQEFVK([AEEA-AEEA-γGlu-C20 diacid])WLLNT-OH) as the molecule, how does the EC50 read?
Answer: 6.35 nM

Question: Which EC50 does the source give for CC(C)C[C@H](NC(=O)[C@H](Cc1ccc(O)cc1)NC(=O)[C@H](CCCCN)NC(=O)[C@H](CO)NC(=O)[C@H](Cc1ccc(O)cc1)NC(=O)[C@H](CC(=O)O)NC(=O)[C@H](CO)NC(=O)[C@@H](NC(=O)[C@H](Cc1ccccc1)NC(=O)[C@@H](NC(=O)CNC(=O)[C@H](CCC(N)=O)NC(=O)[C@H](CO)NC(=O)[C@@H](N)Cc1c[nH]cn1)[C@@H](C)O)[C@@H](C)O)C(=O)N[C@@H](CC(=O)O)C(=O)N[C@@H](CO)C(=O)N[C@@H](CCCCN)C(=O)N[C@@H](CCCCN)C(=O)N[C@@H](C)C(=O)N[C@@H](CCC(N)=O)C(=O)N[C@@H](CCC(=O)O)C(=O)N[C@@H](Cc1ccccc1)C(=O)N[C@H](C(=O)N[C@@H](CCCCNC(=O)COCCOCCNC(=O)COCCOCCNC(=O)CC[C@H](NC(=O)CCCCCCCCCCCCCCCCC(=O)O)C(=O)O)C(=O)N[C@@H](Cc1c[nH]c2ccccc12)C(=O)N[C@@H](CC(C)C)C(=O)N[C@@H](CC(C)C)C(=O)N[C@@H](CC(=O)O)C(=O)N[C@H](C(=O)O)[C@@H](C)O)C(C)C [Example 67, N^ε24-[2-[2-[2-[[2-[2-[2-[[(4S)-4-carboxy-4-(17-carboxyheptadecanoylamino)butanoyl]amino]ethoxy]ethoxy]acetyl]amino]ethoxy]ethoxy]acetyl]-[Lys^17,Lys^18,Glu^21,Lys^24,Leu^27,Asp^28]-Glucagon] (H-HSQGTFTSDYSKYLDSKKAQEFVK([AEEA-AEEA-γGlu-C18 diacid])WLLDT-OH) here?
Answer: 0.051 nM

Question: CC(C)C[C@H](NC(=O)[C@H](CC(C)C)NC(=O)[C@H](Cc1c[nH]c2ccccc12)NC(=O)[C@H](CCC(N)=O)NC(=O)[C@@H](NC(=O)[C@H](Cc1ccccc1)NC(=O)[C@H](CCC(=O)O)NC(=O)[C@H](CCC(N)=O)NC(=O)[C@H](C)NC(=O)[C@H](CCCCN)NC(=O)[C@H](CCCCN)NC(=O)[C@H](CO)NC(=O)[C@H](CC(=O)O)NC(=O)[C@H](CC(C)C)NC(=O)[C@H](Cc1ccc(O)cc1)NC(=O)[C@H](CCCCN)NC(=O)[C@H](CO)NC(=O)[C@H](Cc1ccc(O)cc1)NC(=O)[C@H](CC(=O)O)NC(=O)[C@H](CO)NC(=O)[C@@H](NC(=O)[C@H](Cc1ccccc1)NC(=O)[C@@H](NC(=O)CNC(=O)[C@H](CCC(N)=O)NC(=O)[C@H](CO)NC(=O)[C@@H](N)Cc1c[nH]cn1)[C@@H](C)O)[C@@H](C)O)C(C)C)C(=O)N[C@@H](CC(N)=O)C(=O)N[C@@H](CCCCNC(=O)COCCOCCNC(=O)COCCOCCNC(=O)CC[C@H](NC(=O)CCCCCCCCCCCCCCCCC(=O)O)C(=O)O)C(=O)O [Example 68, N^ε29-[2-[2-[2-[[2-[2-[2-[[(4S)-4-carboxy-4-(17-carboxyheptadecanoylamino)butanoyl]amino]ethoxy]ethoxy]acetyl]amino]ethoxy]ethoxy]acetyl]-[Lys^17,Lys^18,Glu^21,Leu^27,Lys^29]-Glucagon] (H-HSQGTFTSDYSKYLDSKKAQEFVQWLLNK([AEEA-AEEA-γGlu-C18 diacid])-OH) was tested. Which EC50 did it give?
Answer: 0.053 nM

Question: With CC(C)C[C@H](NC(=O)[C@H](Cc1ccc(O)cc1)NC(=O)[C@H](CCCCN)NC(=O)[C@H](CO)NC(=O)[C@H](Cc1ccc(O)cc1)NC(=O)[C@H](CC(=O)O)NC(=O)[C@H](CO)NC(=O)[C@@H](NC(=O)[C@H](Cc1ccccc1)NC(=O)[C@@H](NC(=O)CNC(=O)[C@H](CCC(N)=O)NC(=O)[C@H](CO)NC(=O)[C@@H](N)Cc1c[nH]cn1)[C@@H](C)O)[C@@H](C)O)C(=O)N[C@@H](CC(=O)O)C(=O)N[C@@H](CO)C(=O)N[C@@H](CCCCN)C(=O)N[C@@H](CCCCN)C(=O)N[C@@H](C)C(=O)N[C@@H](CCC(N)=O)C(=O)N[C@@H](CCC(=O)O)C(=O)N[C@@H](Cc1ccccc1)C(=O)N[C@H](C(=O)N[C@@H](CCCCNC(=O)COCCOCCNC(=O)COCCOCCNC(=O)CC[C@H](NC(=O)CCCCCCCCCCCCCCC(=O)O)C(=O)O)C(=O)N[C@@H](Cc1c[nH]c2ccccc12)C(=O)N[C@@H](CC(C)C)C(=O)N[C@@H](CC(C)C)C(=O)N[C@@H](CO)C(=O)N[C@H](C(=O)O)[C@@H](C)O)C(C)C [Example 69, N^ε24-[2-[2-[2-[[2-[2-[2-[[(4S)-4-carboxy-4-(15-carboxypentadecanoylamino)butanoyl]amino]ethoxy]ethoxy]acetyl]amino]ethoxy]ethoxy]acetyl]-[Lys^17,Lys^18,Glu^21,Lys^24,Leu^27,Ser^28]-Glucagon] (H-HSQGTFTSDYSKYLDSKKAQEFVK([AEEA-AEEA-γGlu-C16 diacid])WLLST-OH) as the molecule, how does the EC50 read?
Answer: 0.006 nM

Question: For CC(C)C[C@H](NC(=O)[C@H](Cc1ccc(O)cc1)NC(=O)[C@H](CCCCN)NC(=O)[C@H](CO)NC(=O)[C@H](Cc1ccc(O)cc1)NC(=O)[C@H](CC(=O)O)NC(=O)[C@H](CO)NC(=O)[C@@H](NC(=O)[C@H](Cc1ccccc1)NC(=O)[C@@H](NC(=O)CNC(=O)[C@H](CCC(N)=O)NC(=O)[C@H](CO)NC(=O)[C@@H](N)Cc1c[nH]cn1)[C@@H](C)O)[C@@H](C)O)C(=O)N[C@@H](CC(=O)O)C(=O)N[C@@H](CO)C(=O)N[C@@H](CCCCN)C(=O)N[C@@H](CCCCN)C(=O)N[C@@H](C)C(=O)N[C@@H](CCC(N)=O)C(=O)N[C@@H](CCC(=O)O)C(=O)N[C@@H](Cc1ccccc1)C(=O)N[C@H](C(=O)N[C@@H](CCCCNC(=O)COCCOCCNC(=O)COCCOCCNC(=O)CC[C@H](NC(=O)CCCCCCCCCCCCCCCc1nnn[nH]1)C(=O)O)C(=O)N[C@@H](Cc1c[nH]c2ccccc12)C(=O)N[C@@H](CC(C)C)C(=O)N[C@@H](CC(C)C)C(=O)N[C@@H](CO)C(=O)N[C@H](C(=O)O)[C@@H](C)O)C(C)C [Example 70, N^ε24-[2-[2-[2-[[2-[2-[2-[[(4S)-4-carboxy-4-[16-(1H-tetrazol-5-yl)hexadecanoylamino]butanoyl]amino]ethoxy]ethoxy]acetyl]amino]ethoxy]ethoxy]acetyl]-[Lys^17,Lys^18,Glu^21,Lys^24,Leu^27,Ser^28]-Glucagon] (H-HSQGTFTSDYSKYLDSKKAQEFVK([AEEA-AEEA-γGlu-Palmitoyl(16-(5-tetrazolyl))])WLLST-OH), which EC50 is on record?
Answer: 0.134 nM

Question: With CC(C)C[C@H](NC(=O)[C@H](Cc1ccc(O)cc1)NC(=O)[C@H](CCCCN)NC(=O)[C@H](CO)NC(=O)[C@H](Cc1ccc(O)cc1)NC(=O)[C@H](CC(=O)O)NC(=O)[C@H](CO)NC(=O)[C@@H](NC(=O)[C@H](Cc1ccccc1)NC(=O)[C@@H](NC(=O)CNC(=O)[C@H](CCC(N)=O)NC(=O)[C@H](CO)NC(=O)[C@@H](N)Cc1c[nH]cn1)[C@@H](C)O)[C@@H](C)O)C(=O)N[C@@H](CC(=O)O)C(=O)N[C@@H](CO)C(=O)N[C@@H](CCCCN)C(=O)N[C@@H](CCCCN)C(=O)N[C@@H](C)C(=O)N[C@@H](CCC(N)=O)C(=O)N[C@@H](CCC(=O)O)C(=O)N[C@@H](Cc1ccccc1)C(=O)N[C@H](C(=O)N[C@@H](CCCCNC(=O)COCCOCCNC(=O)CC[C@H](NC(=O)CCCCCCCCCCCCCCCCC(=O)O)C(=O)O)C(=O)N[C@@H](Cc1c[nH]c2ccccc12)C(=O)N[C@@H](CC(C)C)C(=O)N[C@@H](CC(C)C)C(=O)N[C@@H](CO)C(=O)N[C@H](C(=O)O)[C@@H](C)O)C(C)C [Example 71, N^ε24-[2-[2-[2-[[(4S)-4-carboxy-4-(17-carboxyheptadecanoylamino)butanoyl]amino]ethoxy]ethoxy]acetyl]-[Lys^17,Lys^18,Glu^21,Lys^24,Leu^27,Ser^28]-Glucagon] (H-HSQGTFTSDYSKYLDSKKAQEFVK([AEEA-γGlu-C18 diacid])WLLST-OH) as the molecule, how does the EC50 read?
Answer: 0.032 nM
